Experimental data from US12660819B2, “Herbicidal derivatives” (SYNGENTA CROP PROTECTION AG, priority 2020, dated 2026).

How the values were obtained:
Format in all cases: in vivo
[1] = system: Echinochloa crus-galli (ECHCG); test: Pre-emergence Test (glasshouse, percentage damage to the plant); details: 1000 g/ha unless otherwise stated; for percentage damage to the plant, ECHCG: five-point scale; for percentage damage to the plant, ECHCG (five-point scale): Echinochloa crus-galli
[2] = system: Ipomoea hederacea (IPOHE); test: as above; details: 1000 g/ha unless otherwise stated; for percentage damage to the plant, IPOHE: five-point scale; for percentage damage to the plant, IPOHE (five-point scale): Ipomoea hederacea
[3] = system: Amaranthus retoflexus (AMARE); test: as above; details: 1000 g/ha unless otherwise stated; for percentage damage to the plant, AMARE: five-point scale; for percentage damage to the plant, AMARE (five-point scale): Amaranthus retoflexus
Setaria faberi (SETFA) [4] = test: as above; details: 1000 g/ha unless otherwise stated; for percentage damage to the plant, SETFA: five-point scale; for percentage damage to the plant, SETFA (five-point scale): Setaria faberi
[5] = system: Amaranthus retoflexus (AMARE); test: Post-emergence Test (glasshouse, percentage damage to the plant); details: 1000 g/ha unless otherwise stated, evaluated after 13 days; for Post-emergence Test AMARE, percentage damage to the plant (five-point scale): post-emergence spray; for AMARE, percentage damage caused to the plant (five-point scale): post-emergence
Summary of the method: (§1)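 Sown pots; spray 1000 g/ha (unless stated) in acetone/water 50:50 + 0.5% Tween 20; glasshouse 24/16 °C, 14 h light, 65% RH; watered twice daily; % damage read at 13 days, scored 1–5.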

Zea mays (ZEAMX) [6] = test: as above; details: 1000 g/ha unless otherwise stated, evaluated after 13 days; for Post-emergence Test ZEAMX, percentage damage to the plant (five-point scale): post-emergence spray; for ZEAMX, percentage damage caused to the plant (five-point scale): post-emergence
Summary of the method: (§2)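 Seeds sown in pots in glasshouse (24/16 °C day/night, 14 h light, 65% humidity), then sprayed with compound at 1000 g/ha unless stated, from acetone/water 50:50 with 0.5% Tween 20. Damage assessed 13 days later on five-point scale (1=0–20% to 5=81–100%).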

[7] = system: Abutilon theophrasti (ABUTH); test: as above; details: post-emergence spray, 1000 g/ha unless otherwise stated, evaluated after 13 days
Summary of the method: as §1

[8] = system: Echinochloa crus-galli (ECHCG); test: as above; details: post-emergence spray, 1000 g/ha unless otherwise stated, evaluated after 13 days
Summary of the method: as §1

Setaria faberi (SETFA) [9] = test: as above; details: 1000 g/ha unless otherwise stated, evaluated after 13 days; for Post-emergence Test SETFA, percentage damage to the plant (five-point scale): post-emergence spray; for SETFA, percentage damage caused to the plant (five-point scale): post-emergence
Summary of the method: as §2

[10] = system: Ipomoea hederacea (IPOHE); test: as above; details: 1000 g/ha unless otherwise stated, evaluated after 13 days; for Post-emergence Test IPOHE, percentage damage to the plant (five-point scale): post-emergence spray; for IPOHE, percentage damage caused to the plant (five-point scale): post-emergence
Summary of the method: as §2

[11] = system: Abutilon theophrasti (ABUTH); test: Pre-emergence Test (glasshouse, percentage damage to the plant); details: 1000 g/ha unless otherwise stated, five-point scale
Zea mays (ZEAMX) [12] = test: as above; details: 1000 g/ha unless otherwise stated; for percentage damage to the plant, ZEAMX: five-point scale; for percentage damage to the plant, ZEAMX (five-point scale): Zea mays
[13] = system: Amaranthus palmeri (AMAPA); test: Post-emergence Test (glasshouse, percentage damage to the plant); details: post-emergence; 1000 g/ha unless otherwise stated; evaluated after 13 days
Summary of the method: as §1

[14] = system: Amaranthus palmeri (AMAPA); test: Pre-emergence Test (glasshouse, percentage damage to the plant); details: 1000 g/ha unless otherwise stated, Amaranthus palmeri

Row | Compound | percentage damage to the plant, ECHCG [1] | percentage damage to the plant, IPOHE [2] | percentage damage to the plant, AMARE [3] | percentage damage to the plant, SETFA (Setaria faberi (SETFA) [4]) | Post-emergence Test AMARE, percentage damage to the plant (five-point scale) [5] | Post-emergence Test ZEAMX, percentage damage to the plant (five-point scale) (Zea mays (ZEAMX) [6]) | Post-emergence Test ABUTH, percentage damage to the plant (five-point scale) [7] | Post-emergence Test ECHCG, percentage damage to the plant (five-point scale) [8] | Post-emergence Test SETFA, percentage damage to the plant (five-point scale) (Setaria faberi (SETFA) [9]) | percentage damage to the plant, ECHCG (five-point scale) [1] | percentage damage to the plant, IPOHE (five-point scale) [2] | percentage damage to the plant, AMARE (five-point scale) [3] | percentage damage to the plant, SETFA (five-point scale) (Setaria faberi (SETFA) [4]) | AMAPA, percentage damage caused to the plant (five-point scale) [13] | AMARE, percentage damage caused to the plant (five-point scale) [5] | ZEAMX, percentage damage caused to the plant (five-point scale) (Zea mays (ZEAMX) [6]) | SETFA, percentage damage caused to the plant (five-point scale) (Setaria faberi (SETFA) [9]) | IPOHE, percentage damage caused to the plant (five-point scale) [10] | percentage damage to the plant, AMAPA (five-point scale) [14] | percentage damage to the plant, ZEAMX (five-point scale) (Zea mays (ZEAMX) [12]) | further results
1 | CCn1c(C)c(-c2cnccn2)c(=O)c(C(=O)O)c1-c1ccc(Cl)cn1 [Compound 168, 2-(5-chloro-2-pyridyl)-1-ethyl-6-methyl-4-oxo-5-pyrazin-2-yl-pyridine-3-carboxylic acid] | 0 | 0 | 0 | 0 | 0 | 0 | 0 | 0 | 0 | – | – | – | – | – | – | – | – | – | – | – | Post-emergence Test IPOHE, percentage damage to the plant (five-point scale) [10]: 0; percentage damage to the plant, ABUTH [11]: 0; percentage damage to the plant, ZEAMX (Zea mays (ZEAMX) [12]): 0
2 | CCn1c(C)c(-c2ccnnc2)c(=O)c(C(=O)O)c1-c1ccc(Cl)cc1 [Compound 180, 2-(4-chlorophenyl)-1-ethyl-6-methyl-4-oxo-5-pyridazin-4-yl-pyridine-3-carboxylic acid] | 0 | 0 | 0 | 0 | 0 | 0 | 0 | 0 | 0 | – | – | – | – | – | – | – | – | – | – | – | Post-emergence Test IPOHE, percentage damage to the plant (five-point scale) [10]: 2 (2=21-40%); percentage damage to the plant, ABUTH [11]: 0; percentage damage to the plant, ZEAMX (Zea mays (ZEAMX) [12]): 0
3 | CCn1c(C)c(-c2cc(F)ccc2C)c(=O)c(C(=O)O)c1-c1ccc(Cl)c(Cl)c1 [Compound 222, 2-(3,4-dichlorophenyl)-1-ethyl-5-(5-fluoro-2-methyl-phenyl)-6-methyl-4-oxo-pyridine-3-carboxylic acid] | – | – | – | – | – | – | – | – | – | 1 (1=0-20%) | 1 (1=0-20%) | 1 (1=0-20%) | 1 (1=0-20%) | 5 (5=81-100%) | 3 (3=41-60%) | 1 (1=0-20%) | 3 (3=41-60%) | 3 (3=41-60%) | 1 (1=0-20%) | 1 (1=0-20%) | –
4 | CCn1c(C)c(-c2cccc3c2OC(F)(F)O3)c(=O)c(C(=O)O)c1-c1ccc(Cl)c(Cl)c1 [Compound 223, 2-(3,4-dichlorophenyl)-5-(2,2-difluoro-1,3-benzodioxol-4-yl)-1-ethyl-6-methyl-4-oxo-pyridine-3-carboxylic acid] | – | – | – | – | – | – | – | – | – | 1 (1=0-20%) | 0 | 1 (1=0-20%) | 3 (3=41-60%) | 5 (5=81-100%) | 5 (5=81-100%) | 1 (1=0-20%) | 3 (3=41-60%) | 1 (1=0-20%) | 3 (3=41-60%) | 1 (1=0-20%) | –
5 | CCn1c(C)c(-c2cc(OC(F)(F)F)ccc2Cl)c(=O)c(C(=O)O)c1-c1ccc(Cl)c(Cl)c1 [Compound 224, 5-[2-chloro-5-(trifluoromethoxy)phenyl]-2-(3,4-dichlorophenyl)-1-ethyl-6-methyl-4-oxo-pyridine-3-carboxylic acid] | – | – | – | – | – | – | – | – | – | 5 (5=81-100%) | 2 (2=21-40%) | 3 (3=41-60%) | 5 (5=81-100%) | 5 (5=81-100%) | 5 (5=81-100%) | 3 (3=41-60%) | 5 (5=81-100%) | 2 (2=21-40%) | 4 (4=61-80%) | 2 (2=21-40%) | –
